Test results taken from US20230416785A1, “NUCLEASE AND APPLICATION THEREOF” (CRISP-HR Therapeutics, Inc., priority 2020, published 2023).
“Also recorded” adds a separate entry of the source.

How the values were obtained:
[1] = system: A549 cells; experiment: Pifithrin-α treatment of A549 cells transfected with Cas9 or Cas9-HR, resazurin viability; assay type: cell-based, human
Protocol: (§1) 20 μL of 0.15 mg/mL Resazurin solution was added to cells either plated in 96 well plates for all cell lines, which were then incubated for ˜4 hours at 37° C. Cellular toxicity was quantified using a Tecan SpectraFlour Plus plate reader (Tecan) using a 535/595 filter set. Raw data was then normalized to the mean of the untransfected controls and plotted as described.

[2] = system: endogenous H2B; experiment: H2B-mNeon knock-in HDR quantification in K562 cells; assay type: cell-based, human; details: H2B-mNeon RT, genome specific plus RT specific primers
Protocol: After two days, cells were fixed in 4% PFA washed in PBS, then directly imaged, with cells showing nuclear localized fluorescence counted as successful HDR events.
K562 were grown in 24 well plates with RPMI-1640 supplemented with 5% FBS until roughly 70% confluent. At that time cells were either electroporated using the mNeon system (Invitrogen) using optimized settings for K562 cells, or lipofectamine 3000 again following manufactures instructions. Cells were then returned to 24 well plates with fresh media and grown for at least two days before being used in downstream analysis.
After 2 days, cells attached to coverslips coated with 0.01% poly-1-lysine, and were fixed in 4% PFA (Thermofisher) for 15 minutes at RT. After fixation, cells were washed 3× in PBS, mounted in 50% glycerol and imaged on a Nikon Eclipse E600 with standard FITC filters. For quantification, random patches of cells (usually between 8-15 cells per image) were identified via Brightfield, then fluoresce images were taken with constant illumination and exposure time (100%, and 110 ms respectively).

[3] = system: A549 cells; experiment: Cellular toxicity / viability of transfected A549 cells (resazurin assay); assay type: cell-based
Protocol: A549 cells were chosen as they are both facile to grow and transfect, cost effective in terms of media and other reagents, and importantly have retained a functional p53 gene.
Cells were then allowed to recover for one additional day, after which viability was cells were incubated with resazurin (Millipore Sigma) for 4 hours, after which fluorescence was quantified by a plate reader (Perkin Elmer).
Unless otherwise noted, adherent cells (A549 or H1299) were seeded in 96 well plates and grown in either 50/50 F-12/DMEM or RPMI-1640 respectively, supplemented with 5% FBS and grown to roughly 70% confluency. Cells were then transfected with either Cal-Phos as described in Chen 2012 or Lipofectamine 3000 (Thermofisher). Fresh media was exchanged the next day and cellular viability was quantified on day 2.
as §1
as §1, with “described. […] Stats: All two-sided students T-test with unequal variance.” for “described.”

[4] = system: HBB amplicon; experiment: In-vitro exonuclease assay with purified proteins; assay type: biochemical, human; details: 30 nM protein, 3 nM HBB amplicon, 37° C., 60 minutes
Protocol: Reactions were then electrophoresed and visualized on an agarose gel. FIG. 5C illustrates quantification of exonuclease activity. Quantification of exonuclease activity assayed in FIG. 5B. 3 replicates were performed for each reaction and were quantified via FIJI (ImageJ) and then normalized to control amplicon levels.
Reactions were then electrophoresed and visualized on an agarose gel.
DNA was isolated from wildtype K562 cells, and amplified using standard Taq DNA polymerase and HBB-out-F (5′-[…]-3′ (SEQ ID NO: 125)) and HBB-out-R (5′-[…]-3′ (SEQ ID NO: 126)), Tm=56 for 35 cycles, and purified using the Qiagen PCR cleanup kit. […] The samples were then electrophoresed on a standard 1% TAE agarose gel stained with gel green.

Molecule | cellular viability over a dilution series ([1]; 10 nM-10 μM Pifithrin-α, A549 cells transfected with Cas9) | effect on viability / Cas9 mediated toxicity compared to DMSO ([1]; 10 μM Pifithrin-α, A549 cells transfected with Cas9) | effect on viability / toxicity compared to DMSO ([1]; 10 μM Pifithrin-α, A549 cells transfected with Cas9-HR 8) | increase in cellular viability compared to DMSO ([1]; 10 μM Pifithrin-α, A549 cells transfected with Cas9, two days) [fold] | PCR of 5′ and 3′ knock-in junctions [2] | cellular toxicity ([3]; Int-G2 and Int-G3, CalPhos) | toxicity targeting G-2 rather than G-3 ([3]; Int-G2 vs Int-G3) | reduction in cellular toxicity compared to Cas9 or Cas9+hExo1 ([3]; targeting HBB-G3) | exonuclease activity (reduction of full length HBB amplicon) [4]
Cc1ccc(C(=O)Cn2c3c(sc2=N)CCCC3)cc1 [Pifithrin-α] | dose dependent response in cellular viability; also recorded: decreasing levels of toxicity with increasing concentrations; also recorded: Dose dependent increases in cellular viability | reduces Cas9 mediated cellular toxicity; also recorded: statistically significant (p<0.001) increase in viability; also recorded: increase in cellular viability | does not affect cellular toxicity; also recorded: no significant change in cellular viability; also recorded: no effect | ~2 | – | – | – | – | –
Cas9-HR 4: hExo1(1-352)-Cas9 fusion of FIG. 1A; E. coli codon optimized vector SEQ ID NO: 67 | – | – | – | – | Successful amplification | dramatic reduction in cellular toxicity | significantly more toxicity | greatest reduction | did not show Exonuclease activity; also recorded: no significant activity
